Common to all, as to format: functional, cell-based
The test system of experiment [1] is RAW264.7. As to the kind of experiment: Cytotoxicity against mouse RAW264.7 cells assessed as reduction in cell viability at <50 uM incubated for 24 hrs by MTT assay.
The subject of experiment [2] is RAW264.7. As to the kind of experiment: Antiinflammatory activity in mouse RAW264.7 cells assessed as inhibition of LPS-induced NO production at 1 uM incubated for 24 hrs.
For experiment [3], the system named is RAW264.7. As to the kind of experiment: Antiinflammatory activity in mouse RAW264.7 cells assessed as inhibition of LPS-induced NO production at 0.1 uM incubated for 24 hrs.
Experiment [4] concerns RAW264.7. As to the kind of experiment: Antiinflammatory activity in mouse RAW264.7 cells assessed as inhibition of LPS-induced NO production at 0.05 uM incubated for 24 hrs.
Experiment [5] relates to RAW264.7. As to the kind of experiment: Antiinflammatory activity in mouse RAW264.7 cells assessed as inhibition of LPS-induced TNF-alpha expression at 0.1 uM measured after 24 hrs by ELISA method. A general note: In an ELISA, binding on a coated surface is turned into a signal by an enzyme label.
Experiment [6] deals with RAW264.7. As to the kind of experiment: Antiinflammatory activity in mouse RAW264.7 cells assessed as reduction in LPS-induced IL-6 level at 0.05 uM measured after 24 hrs by ELISA method.
For experiment [7], the system named is RAW264.7. As to the kind of experiment: Cytotoxicity against mouse RAW264.7 cells assessed as reduction in cell viability at 2 to 10 uM incubated for 24 hrs by MTT assay. The note with it: dose 2-10 µM. For orientation: Formazan colour is commonly taken as a measure of viable cells.

This is an account of results in ChEMBL document CHEMBL5385873, “Analogues of natural products yaequinolones as potential inflammatory inhibitors: Design, synthesis and biological evaluation” (Eur J Med Chem, 2023).

Calls of active or inactive are those of the source. The rule behind the calls is not given here.

`CO[C@@H]1C(=O)Nc2ccc3c(c2[C@@]1(O)c1ccccc1)O[C@@](C)(CCC=C(C)C)C=C3`: the outcome in the experiment with RAW264.7 [1] was inactive.
Turning to `CO[C@@H]1C(=O)Nc2ccc3c(c2[C@@]1(O)c1ccccc1)O[C@](C)(CCC=C(C)C)C=C3`, the result in the experiment on RAW264.7 [2], in the experiment with RAW264.7 [3] and with RAW264.7 [6] was Active. For the same compound, the result with RAW264.7 [1], in the experiment on RAW264.7 [4] and with RAW264.7 [5] was inactive.
On to `CO[C@H]1C(=O)Nc2ccc3c(c2[C@]1(O)c1ccccc1)O[C@@](C)(CCC=C(C)C)C=C3`, for which the outcome in the experiment on RAW264.7 [1] was inactive.
Regarding `CO[C@H]1C(=O)Nc2ccc3c(c2[C@]1(O)c1ccccc1)O[C@](C)(CCC=C(C)C)C=C3`, the outcome in the experiment with RAW264.7 [2], in the experiment on RAW264.7 [3] and with RAW264.7 [6] was Active. Also, the outcome in the experiment with RAW264.7 [1], with RAW264.7 [4] and in the experiment on RAW264.7 [5] was inactive.
For `COc1ccc([C@@]2(O)c3c(ccc4c3O[C@@](C)(CCC=C(C)C)C=C4)NC(=O)[C@@H]2OC)cc1`, the outcome in the experiment with RAW264.7 [1] was inactive.
Same read-out and setting: the same measure for `COc1ccc([C@@]2(O)c3c(ccc4c3O[C@](C)(CCC=C(C)C)C=C4)NC(=O)[C@@H]2OC)cc1`: “inactive”.
On to `COc1ccc([C@]2(O)c3c(ccc4c3O[C@@](C)(CCC=C(C)C)C=C4)NC(=O)[C@H]2OC)cc1`, for which the result in the experiment on RAW264.7 [1] was inactive.
As for `COc1ccc([C@]2(O)c3c(ccc4c3O[C@](C)(CCC=C(C)C)C=C4)NC(=O)[C@H]2OC)cc1`, the result with RAW264.7 [2] was Active. The outcome in the experiment on RAW264.7 [1] and in the experiment with RAW264.7 [4] was inactive.
As to `CO[C@@H]1C(=O)Nc2ccc3c(c2[C@@]1(O)c1ccc(Br)cc1)O[C@@](C)(CCC=C(C)C)C=C3` (racemic), the outcome in the experiment with RAW264.7 [7] was Active.
With `CO[C@@H]1C(=O)Nc2ccc3c(c2[C@@]1(O)c1ccc(Br)cc1)O[C@](C)(CCC=C(C)C)C=C3` (racemic), the outcome in the experiment with RAW264.7 [2] was Active. Also, the result in the experiment with RAW264.7 [1] and in the experiment with RAW264.7 [4] was inactive.
Regarding `CO[C@@H]1C(=O)Nc2ccc3c(c2[C@@]1(O)c1ccc(C(F)(F)F)cc1)O[C@](C)(CCC=C(C)C)C=C3` (racemic), the result in the experiment with RAW264.7 [2] was Active. Further, the result with RAW264.7 [1] and in the experiment with RAW264.7 [4] was inactive.
Consider `CO[C@@H]1C(=O)Nc2ccc3c(c2[C@@]1(O)c1ccc(C)cc1)O[C@@](C)(CCC=C(C)C)C=C3` (racemic), for which the outcome with RAW264.7 [1] was inactive.
`CO[C@@H]1C(=O)Nc2ccc3c(c2[C@@]1(O)c1ccc(C)cc1)O[C@](C)(CCC=C(C)C)C=C3` (racemic): the outcome in the experiment on RAW264.7 [1] was inactive.
On the same count and under the same terms, the value for `CO[C@@H]1C(=O)Nc2ccc3c(c2[C@@]1(O)c1ccc(Cl)cc1)O[C@@](C)(CCC=C(C)C)C=C3` (racemic) was “inactive”.
Same read-out and setting: the value for `CO[C@@H]1C(=O)Nc2ccc3c(c2[C@@]1(O)c1ccc(Cl)cc1)O[C@](C)(CCC=C(C)C)C=C3` (racemic) was “inactive”.
The same measure, in the same setting: the value for `CO[C@@H]1C(=O)Nc2ccc3c(c2[C@@]1(O)c1ccc(F)cc1)O[C@@](C)(CCC=C(C)C)C=C3` (racemic) was “inactive”; that for `CO[C@@H]1C(=O)Nc2ccc3c(c2[C@@]1(O)c1ccc(F)cc1)O[C@](C)(CCC=C(C)C)C=C3` (racemic) was “inactive”.
Turning to `CO[C@@H]1C(=O)Nc2ccc3c(c2[C@@]1(O)c1ccc([N+](=O)[O-])cc1)O[C@@](C)(CCC=C(C)C)C=C3` (racemic), the result in the experiment with RAW264.7 [2], in the experiment on RAW264.7 [3] and with RAW264.7 [6] was Active. Moreover, the outcome with RAW264.7 [1], with RAW264.7 [4] and in the experiment with RAW264.7 [5] was inactive.
Consider `CO[C@@H]1C(=O)Nc2ccc3c(c2[C@@]1(O)c1ccc([N+](=O)[O-])cc1)O[C@](C)(CCC=C(C)C)C=C3` (racemic), for which the outcome in the experiment on RAW264.7 [2] and in the experiment with RAW264.7 [3] was Active. Also, the outcome in the experiment on RAW264.7 [1], in the experiment on RAW264.7 [4] and in the experiment on RAW264.7 [5] was inactive.
Turning to `CO[C@@H]1C(=O)Nc2ccc3c(c2[C@@]1(O)c1cccc(Br)c1)O[C@@](C)(CCC=C(C)C)C=C3` (racemic), the outcome in the experiment on RAW264.7 [2] and with RAW264.7 [3] was Active. The result in the experiment on RAW264.7 [1] and in the experiment on RAW264.7 [4] was inactive.
On to `CO[C@@H]1C(=O)Nc2ccc3c(c2[C@@]1(O)c1cccc(Br)c1)O[C@](C)(CCC=C(C)C)C=C3` (racemic), for which the result in the experiment on RAW264.7 [2], in the experiment on RAW264.7 [3] and in the experiment with RAW264.7 [6] was Active. In addition, the result in the experiment on RAW264.7 [1], in the experiment with RAW264.7 [4] and with RAW264.7 [5] was inactive.
`COc1ccc([C@]2(O)c3c(ccc4c3O[C@@](C)(CCC=C(C)C)C=C4)N(C)C(=O)[C@H]2OC)cc1` (racemic): the outcome with RAW264.7 [2] was Active. For the same compound, the result in the experiment with RAW264.7 [1] and in the experiment on RAW264.7 [4] was inactive.
For the compound `COc1ccc([C@]2(O)c3c(ccc4c3O[C@@](C)(CCC=C(C)C)C=C4)N(Cc3ccc(Cl)cc3)C(=O)[C@H]2OC)cc1` (racemic), the result with RAW264.7 [2] and in the experiment on RAW264.7 [3] was Active. Besides, the result in the experiment with RAW264.7 [1] and with RAW264.7 [4] was inactive.
With `COc1ccc([C@]2(O)c3c(ccc4c3O[C@@](C)(CCC=C(C)C)C=C4)N(Cc3cccc(Br)c3)C(=O)[C@H]2OC)cc1` (racemic), the result in the experiment with RAW264.7 [2] and with RAW264.7 [3] was Active. In addition, the result with RAW264.7 [1] and in the experiment on RAW264.7 [4] was inactive.
For the compound `COc1ccc([C@]2(O)c3c(ccc4c3O[C@@](C)(CCC=C(C)C)C=C4)N(Cc3cccc(C(F)(F)F)c3)C(=O)[C@H]2OC)cc1` (racemic), in the experiment on RAW264.7 [1], the result was inactive.
Same read-out and setting: the value for `COc1ccc([C@]2(O)c3c(ccc4c3O[C@@](C)(CCC=C(C)C)C=C4)N(Cc3cccc(C)c3)C(=O)[C@H]2OC)cc1` (racemic) was “inactive”.
Turning to `COc1ccc([C@]2(O)c3c(ccc4c3O[C@@](C)(CCC=C(C)C)C=C4)N(Cc3cccc(C)n3)C(=O)[C@H]2OC)cc1` (racemic), the outcome in the experiment on RAW264.7 [2] and in the experiment with RAW264.7 [3] was Active. Also, the outcome in the experiment with RAW264.7 [1] and in the experiment with RAW264.7 [4] was inactive.
On to `COc1ccc([C@]2(O)c3c(ccc4c3O[C@@](C)(CCC=C(C)C)C=C4)N(Cc3cccc(F)c3)C(=O)[C@H]2OC)cc1` (racemic), for which the outcome in the experiment on RAW264.7 [2] was Active. Further, the outcome in the experiment on RAW264.7 [1] and with RAW264.7 [4] was inactive.
As for `COc1ccc([C@]2(O)c3c(ccc4c3O[C@@](C)(CCC=C(C)C)C=C4)N(Cc3ccccc3Cl)C(=O)[C@H]2OC)cc1` (racemic), the outcome in the experiment on RAW264.7 [2] was Active. Also, the result in the experiment on RAW264.7 [1] and in the experiment with RAW264.7 [4] was inactive.
For `COc1ccc([C@]2(O)c3c(ccc4c3O[C@](C)(CCC=C(C)C)C=C4)N(C)C(=O)[C@H]2OC)cc1` (racemic), the result in the experiment with RAW264.7 [2] was Active. Also, the result with RAW264.7 [1] and in the experiment on RAW264.7 [4] was inactive.
For the compound `COc1ccc([C@]2(O)c3c(ccc4c3O[C@](C)(CCC=C(C)C)C=C4)N(Cc3ccc(Cl)cc3)C(=O)[C@H]2OC)cc1` (racemic), the result in the experiment with RAW264.7 [2] was Active. The outcome in the experiment on RAW264.7 [1] and in the experiment on RAW264.7 [4] was inactive.
For `COc1ccc([C@]2(O)c3c(ccc4c3O[C@](C)(CCC=C(C)C)C=C4)N(Cc3cccc(Br)c3)C(=O)[C@H]2OC)cc1` (racemic), the outcome in the experiment with RAW264.7 [2], with RAW264.7 [7] and in the experiment with RAW264.7 [3] was Active. In the experiment on RAW264.7 [4], the result was inactive.
In the case of `COc1ccc([C@]2(O)c3c(ccc4c3O[C@](C)(CCC=C(C)C)C=C4)N(Cc3cccc(C(F)(F)F)c3)C(=O)[C@H]2OC)cc1` (racemic), the result with RAW264.7 [2] and in the experiment with RAW264.7 [3] was Active. Also, the result in the experiment on RAW264.7 [1] and in the experiment with RAW264.7 [4] was inactive.
With `COc1ccc([C@]2(O)c3c(ccc4c3O[C@](C)(CCC=C(C)C)C=C4)N(Cc3cccc(C)c3)C(=O)[C@H]2OC)cc1` (racemic), the outcome in the experiment with RAW264.7 [1] was inactive.
Turning to `COc1ccc([C@]2(O)c3c(ccc4c3O[C@](C)(CCC=C(C)C)C=C4)N(Cc3cccc(C)n3)C(=O)[C@H]2OC)cc1` (racemic), the result in the experiment with RAW264.7 [1] was inactive.
For the compound `COc1ccc([C@]2(O)c3c(ccc4c3O[C@](C)(CCC=C(C)C)C=C4)N(Cc3cccc(F)c3)C(=O)[C@H]2OC)cc1` (racemic), the result in the experiment on RAW264.7 [2] and with RAW264.7 [3] was Active. The result in the experiment with RAW264.7 [1] and in the experiment on RAW264.7 [4] was inactive.
With `COc1ccc([C@]2(O)c3c(ccc4c3O[C@](C)(CCC=C(C)C)C=C4)N(Cc3ccccc3Cl)C(=O)[C@H]2OC)cc1` (racemic), the outcome in the experiment with RAW264.7 [1] was inactive.
For `COc1cccc([C@]2(O)c3c(ccc4c3O[C@@](C)(CCC=C(C)C)C=C4)NC(=O)[C@H]2OC)c1` (racemic), in the experiment with RAW264.7 [2], the result was Active. Moreover, the result in the experiment on RAW264.7 [1] and in the experiment on RAW264.7 [4] was inactive.
With `COc1cccc([C@]2(O)c3c(ccc4c3O[C@](C)(CCC=C(C)C)C=C4)NC(=O)[C@H]2OC)c1` (racemic), the result in the experiment on RAW264.7 [2] was Active. Also, the result in the experiment on RAW264.7 [1] and in the experiment on RAW264.7 [4] was inactive.
